Data reported in patent publication US9193720B2, “Pyridin-3-yl acetic acid derivatives as inhibitors of human immunodeficiency virus replication” (priority 2014, dated 2015).

The compounds below were run on NL-RLuc virus (assay: Inhibition of HIV Replication (NL-RLuc luciferase reporter virus in MT-2 cells)). Settings: Human immunodeficiency virus 1, MT2, 120 h.
Type: cell-based
Procedure, shortened: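 Replication-competent virus with Renilla luciferase in place of part of nef, made in 293T cells and titered in MT-2 cells. Infected MT-2 cells grown 5 days with serially diluted compound in RPMI 1640/10% FBS, 10 mM HEPES pH 7.55. Luciferase read-out; EC50 from median effect equation, at least 2 experiments.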

Row | SMILES | EC50 [nM]
1 | Cc1nc(C)c([C@H](OC(C)(C)C)C(=O)O)c(N2CCC(c3nc(C(C)C)no3)CC2)c1-c1ccc(OCCc2ccc(F)cc2)cc1 [Example 73, (S)-2-(tert-butoxy)-2-(5-(4-(4-fluorophenethoxy)phenyl)-4-(4-(3-isopropyl-1,2,4-oxadiazol-5-yl)piperidin-1-yl)-2,6-dimethylpyridin-3-yl)acetic acid] | 1030
2 | CCC1(C)CCN(c2c(-c3ccc(OCCc4ccc(F)cc4)cc3)c(C)nc(C)c2[C@H](OC(C)(C)C)C(=O)O)CC1 [Example 75, (S)-2-(tert-butoxy)-2-(4-(4-ethyl-4-methylpiperidin-1-yl)-5-(4-(4-fluorophenethoxy)phenyl)-2,6-dimethylpyridin-3-yl)acetic acid] | 4
3 | Cc1nc(C)c([C@H](OC(C)(C)C)C(=O)O)c(N2CCC(Cc3ccccc3)CC2)c1-c1ccc(OCCc2ccc(F)cc2)cc1 [Example 80, (S)-2-(4-(4-benzylpiperidin-1-yl)-5-(4-(4-fluorophenethoxy)phenyl)-2,6-dimethylpyridin-3-yl)-2-(tert-butoxy)acetic acid] | 1770
4 | Cc1nc(C)c([C@H](OC(C)(C)C)C(=O)O)c(N2CC(C)CC(C)C2)c1-c1ccc(OCCc2ccc(F)cc2)cc1 (stereo partly drawn) [Example 82] | 5430
5 | Cc1nc(C)c([C@H](OC(C)(C)C)C(=O)O)c(N2CCC(C)(C)CC2)c1-c1ccc(Oc2ccccc2)cc1 [Example 1, (S)-2-(tert-butoxy)-2-(4-(4,4-dimethylpiperidin-1-yl)-2,6-dimethyl-5-(4-phenoxyphenyl)pyridin-3-yl)acetic acid] | 37
6 | Cc1nc(C)c([C@H](OC(C)(C)C)C(=O)O)c(N2CCC(C)(C)CC2)c1-c1ccc(OC(C)Cc2ccc(F)cc2)cc1 (single isomer, unassigned) [Example 21] | 14
7 | CO[C@@H](COc1ccc(-c2c(C)nc(C)c([C@H](OC(C)(C)C)C(=O)O)c2N2CCC(C)(C)CC2)cc1)c1ccccc1 [Example 35, (S)-2-(tert-butoxy)-2-(4-(4,4-dimethylpiperidin-1-yl)-5-(4-((R)-2-methoxy-2-phenylethoxy)phenyl)-2,6-dimethylpyridin-3-yl)acetic acid] | 13
8 | Cc1nc(C)c([C@H](OC(C)(C)C)C(=O)O)c(N2CCC(C)(C)CC2)c1-c1ccc(OCCc2ccc(F)c(F)c2)cc1 [Example 24, (S)-2-(tert-butoxy)-2-(5-(4-(3,4-difluorophenethoxy)phenyl)-4-(4,4-dimethylpiperidin-1-yl)-2,6-dimethylpyridin-3-yl)acetic acid] | 3
9 | Cc1ccc(-c2c(C)nc(C)c([C@H](OC(C)(C)C)C(=O)O)c2N2CCC(C)(C)CC2)cc1OCc1ccccc1 [Example 55, (S)-2-(5-(3-(benzyloxy)-4-methylphenyl)-4-(4,4-dimethylpiperidin-1-yl)-2,6-dimethylpyridin-3-yl)-2-(tert-butoxy)acetic acid] | 93
10 | Cc1nc(C)c([C@H](OC(C)(C)C)C(=O)O)c(N2CCC(C3CC3)C2)c1-c1ccc(OCCc2ccc(F)cc2)cc1 (stereo partly drawn) [Example 68, (2S)-2-(tert-butoxy)-2-(4-(3-cyclopropylpyrrolidin-1-yl)-5-(4-(4-fluorophenethoxy)phenyl)-2,6-dimethylpyridin-3-yl)acetic acid] | 42
11 | COc1ncc(-c2c(C)nc(C)c([C@H](OC(C)(C)C)C(=O)O)c2N2CCC(C)(C)CC2)cn1 [Example 57, (S)-2-(tert-butoxy)-2-(4-(4,4-dimethylpiperidin-1-yl)-5-(2-methoxypyrimidin-5-yl)-2,6-dimethylpyridin-3-yl)acetic acid] | 217
12 | Cc1nc(C)c([C@H](OC(C)(C)C)C(=O)O)c(N2CCC(C)(C)CC2)c1-c1ccc(OCCc2ccc(C(N)=O)cc2)cc1 [Example 17, (S)-2-(tert-Butoxy)-2-(5-(4-(4-carbamoylphenethoxy)phenyl)-4-(4,4-dimethylpiperidin-1-yl)-2,6-dimethylpyridin-3-yl)acetic acid] | 4
13 | COc1cccc(CCOc2ccc(-c3c(C)nc(C)c([C@H](OC(C)(C)C)C(=O)O)c3N3CCC(C)(C)CC3)cc2)c1 [Example 36, (S)-2-(tert-butoxy)-2-(4-(4,4-dimethylpiperidin-1-yl)-5-(4-(3-methoxyphenethoxy)phenyl)-2,6-dimethylpyridin-3-yl)acetic acid] | 2
14 | Cc1nc(C)c([C@H](OC(C)(C)C)C(=O)O)c(N2CCC(C)(C)CC2)c1-c1ccc(OCCc2ccc(Cl)c(F)c2)cc1 [Example 27, (S)-2-(tert-butoxy)-2-(5-(4-(4-chloro-3-fluorophenethoxy)phenyl)-4-(4,4-dimethylpiperidin-1-yl)-2,6-dimethylpyridin-3-yl)acetic acid] | 12
15 | Cc1nc(C)c([C@H](OC(C)(C)C)C(=O)O)c(N2CCC(C)(C)CC2)c1-c1ccc(OC(C)Cc2ccc(F)cc2)cc1 (stereo partly drawn) [Example 22, (2S)-2-(tert-Butoxy)-2-(4-(4,4-dimethylpiperidin-1-yl)-5-(4-((1-(4-fluorophenyl)propan-2-yl)oxy)phenyl)-2,6-dimethylpyridin-3-yl)acetic acid] | 7
16 | Cc1nc(C)c([C@H](OC(C)(C)C)C(=O)O)c(N2CCC(C)(C)CC2)c1-c1ccc(OCc2ccccc2)c(F)c1 [Example 4, (S)-2-(5-(4-(benzyloxy)-3-fluorophenyl)-4-(4,4-dimethylpiperidin-1-yl)-2,6-dimethylpyridin-3-yl)-2-(tert-butoxy)acetic acid] | 12
17 | Cc1nc(C)c([C@H](OC(C)(C)C)C(=O)O)c(N2CCC(C)(C)CC2)c1-c1ccc(OCCc2ccc3ccccc3c2)cc1 [Example 30, (S)-2-(tert-butoxy)-2-(4-(4,4-dimethylpiperidin-1-yl)-2,6-dimethyl-5-(4-(2-(naphthalen-2-yl)ethoxy)phenyl)pyridin-3-yl)acetic acid] | 6
18 | Cc1nc(C)c([C@H](OC(C)(C)C)C(=O)O)c(N2CCC(C)(C)CC2)c1-c1ccc(OCCc2cccnc2)cc1 [Example 41, (S)-2-(tert-butoxy)-2-(4-(4,4-dimethylpiperidin-1-yl)-2,6-dimethyl-5-(4-(2-(pyridin-3-yl)ethoxy)phenyl)pyridin-3-yl)acetic acid] | 1
19 | Cc1nc(C)c([C@H](OC(C)(C)C)C(=O)O)c(N2CCC(C)(C)CC2)c1-c1ccc(OCc2cncs2)cc1 [Example 43, (S)-2-(tert-butoxy)-2-(4-(4,4-dimethylpiperidin-1-yl)-2,6-dimethyl-5-(4-(thiazol-5-ylmethoxy)phenyl)pyridin-3-yl)acetic acid] | 14
20 | Cc1nc(C)c([C@H](OC(C)(C)C)C(=O)O)c(N2CCC(c3ccccc3)CC2)c1-c1ccc(OCCc2ccc(F)cc2)cc1 [Example 72, (S)-2-(tert-butoxy)-2-(5-(4-(4-fluorophenethoxy)phenyl)-2,6-dimethyl-4-(4-phenylpiperidin-1-yl)pyridin-3-yl)acetic acid] | 744
21 | Cc1nc(C)c([C@H](OC(C)(C)C)C(=O)O)c(N2CC(F)(F)C2)c1-c1ccc(OCCc2ccc(F)cc2)cc1 [Example 69, (S)-2-(tert-butoxy)-2-(4-(3,3-difluoroazetidin-1-yl)-5-(4-(4-fluorophenethoxy)phenyl)-2,6-dimethylpyridin-3-yl)acetic acid] | 1990
